Results from US20180243298A1, “TRPV3 MODULATORS” (AbbVie Inc., priority 2015, published 2018).

Each compound was assayed against T1, human TRPV3 (Homo sapiens, UniProt Q8NET8) (assay: Calcium flux assay (FLIPR TETRA), recombinant HEK293 cells expressing TRPV3, 2-APB response). Conditions: 2-APB at its EC80.
T1 construct: expressed in transfected cells; host or cells: HEK293
T1 sequence (Q8NET8 1-790): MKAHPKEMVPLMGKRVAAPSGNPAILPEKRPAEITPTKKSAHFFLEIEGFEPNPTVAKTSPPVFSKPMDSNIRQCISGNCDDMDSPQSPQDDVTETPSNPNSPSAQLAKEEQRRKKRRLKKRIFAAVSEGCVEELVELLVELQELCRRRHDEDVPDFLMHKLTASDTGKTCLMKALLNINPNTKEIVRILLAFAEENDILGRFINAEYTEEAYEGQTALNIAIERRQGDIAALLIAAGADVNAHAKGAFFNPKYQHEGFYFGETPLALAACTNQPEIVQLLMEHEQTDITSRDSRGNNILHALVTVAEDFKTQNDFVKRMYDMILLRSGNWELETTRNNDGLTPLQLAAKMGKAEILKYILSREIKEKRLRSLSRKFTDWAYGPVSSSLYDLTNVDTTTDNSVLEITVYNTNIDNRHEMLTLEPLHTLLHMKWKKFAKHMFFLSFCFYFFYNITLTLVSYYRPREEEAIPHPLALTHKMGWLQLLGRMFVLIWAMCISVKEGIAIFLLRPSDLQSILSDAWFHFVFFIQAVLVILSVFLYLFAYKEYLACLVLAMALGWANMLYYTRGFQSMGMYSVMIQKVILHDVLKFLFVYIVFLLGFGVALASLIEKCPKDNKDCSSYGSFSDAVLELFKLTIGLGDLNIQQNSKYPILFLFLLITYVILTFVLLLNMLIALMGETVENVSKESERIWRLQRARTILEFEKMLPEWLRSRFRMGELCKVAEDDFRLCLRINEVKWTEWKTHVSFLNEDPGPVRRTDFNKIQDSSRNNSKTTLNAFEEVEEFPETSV
Assay type: cell-based
Outline: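 HEK293 cells stably expressing human or mouse TRPV3, loaded with Calcium-4 dye for 90–120 min, read on FLIPR TETRA. Peak fluorescence rise over baseline expressed as percent of the maximal response to 2-APB at its EC80 without compound.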

Row | SMILES | IC50 [nM]
1 | COc1ncnc(OC)c1C(=O)Nc1nc(C(F)(F)F)c(C(F)(F)F)s1 [Example 163, N-[4,5-bis(trifluoromethyl)-1,3-thiazol-2-yl]-4,6-dimethoxypyrimidine-5-carboxamide] | 50 to 100
2 | COc1ncnc(OC)c1C(=O)Nc1nc(C(F)(F)F)c(C2=CCC(C#N)CC2)s1 (stereo not drawn) [Example 164, N-[5-(4-cyanocyclohex-1-en-1-yl)-4-(trifluoromethyl)-1,3-thiazol-2-yl]-4,6-dimethoxypyrimidine-5-carboxamide] | 100 to 500
3 | COc1ncnc(OC)c1C(=O)Nc1nc(C(F)(F)F)c(C2=CCN(S(C)(=O)=O)CC2)s1 [Example 165, 4,6-dimethoxy-N-{5-[1-(methylsulfonyl)-1,2,3,6-tetrahydropyridin-4-yl]-4-(trifluoromethyl)-1,3-thiazol-2-yl}pyrimidine-5-carboxamide] | 500 to 1000
4 | COc1ncnc(OC)c1C(=O)Nc1nc(C(F)(F)F)c(-c2ccnc(C(F)(F)F)c2)s1 [Example 166, 4,6-dimethoxy-N-{4-(trifluoromethyl)-5-[2-(trifluoromethyl)pyridin-4-yl]-1,3-thiazol-2-yl}pyrimidine-5-carboxamide] | 50 to 100
5 | COc1ncnc(OC)c1C(=O)Nc1nc(C(F)(F)F)c(-c2ccnc3ccccc23)s1 [Example 167, 4,6-dimethoxy-N-[5-(quinolin-4-yl)-4-(trifluoromethyl)-1,3-thiazol-2-yl]pyrimidine-5-carboxamide] | < 50
6 | COc1ncnc(OC)c1C(=O)Nc1nc(C(F)(F)F)c(-c2cnn(C3CC3)c2)s1 [Example 168, N-[5-(1-cyclopropyl-1H-pyrazol-4-yl)-4-(trifluoromethyl)-1,3-thiazol-2-yl]-4,6-dimethoxypyrimidine-5-carboxamide] | 50 to 100
7 | COc1ncnc(OC)c1C(=O)Nc1nc(C(F)(F)F)c(-c2ccc(C(C)(C)C#N)cc2)s1 [Example 173, N-{5-[4-(2-cyanopropan-2-yl)phenyl]-4-(trifluoromethyl)-1,3-thiazol-2-yl}-4,6-dimethoxypyrimidine-5-carboxamide] | 100 to 500
8 | COc1ncnc(OC)c1C(=O)Nc1nc(C(F)(F)F)c(-c2cnn(CC3CC3)c2)s1 [Example 175, N-{5-[1-(cyclopropylmethyl)-1H-pyrazol-4-yl]-4-(trifluoromethyl)-1,3-thiazol-2-yl}-4,6-dimethoxypyrimidine-5-carboxamide] | < 50
9 | CCn1cc(-c2sc(NC(=O)c3c(OC)ncnc3OC)nc2C(F)(F)F)cn1 [Example 177, N-[5-(1-ethyl-1H-pyrazol-4-yl)-4-(trifluoromethyl)-1,3-thiazol-2-yl]-4,6-dimethoxypyrimidine-5-carboxamide] | 100 to 500
10 | COc1ncnc(OC)c1C(=O)Nc1nc(CCOc2ccc(F)cc2)cs1 [Example 178, N-{4-[2-(4-fluorophenoxy)ethyl]-1,3-thiazol-2-yl}-4,6-dimethoxypyrimidine-5-carboxamide] | 500 to 1000
11 | COc1ncnc(OC)c1C(=O)Nc1nc(C(F)(F)F)c(-c2cn(C)nc2C(C)C)s1 [Example 181, 4,6-dimethoxy-N-{5-[1-methyl-3-(propan-2-yl)-1H-pyrazol-4-yl]-4-(trifluoromethyl)-1,3-thiazol-2-yl}pyrimidine-5-carboxamide] | 50 to 100
12 | COc1ncnc(OC)c1C(=O)Nc1nc(C(F)(F)F)c(-c2ccnc(N3CCOCC3)c2)s1 [Example 182, 4,6-dimethoxy-N-{5-[2-(morpholin-4-yl)pyridin-4-yl]-4-(trifluoromethyl)-1,3-thiazol-2-yl}pyrimidine-5-carboxamide] | 50 to 100
13 | COc1ncc(-c2sc(NC(=O)c3c(OC)ncnc3OC)nc2C(F)(F)F)cc1C#N [Example 184, N-[5-(5-cyano-6-methoxypyridin-3-yl)-4-(trifluoromethyl)-1,3-thiazol-2-yl]-4,6-dimethoxypyrimidine-5-carboxamide] | < 50
14 | COc1ncnc(OC)c1C(=O)Nc1nc(C(F)(F)F)c(-c2cn(C)nc2C(F)(F)F)s1 [Example 186, 4,6-dimethoxy-N-{5-[1-methyl-3-(trifluoromethyl)-1H-pyrazol-4-yl]-4-(trifluoromethyl)-1,3-thiazol-2-yl}pyrimidine-5-carboxamide] | < 50
15 | COc1ncnc(OC)c1C(=O)Nc1nc(C2CC2)c(Cc2ccc(F)cc2)s1 [Example 190, N-[4-cyclopropyl-5-(4-fluorobenzyl)-1,3-thiazol-2-yl]-4,6-dimethoxypyrimidine-5-carboxamide] | 50 to 100
16 | COc1ncnc(OC)c1C(=O)Nc1nc(C(C)(C)C)c(Br)s1 [Example 192, N-(5-bromo-4-tert-butyl-1,3-thiazol-2-yl)-4,6-dimethoxypyrimidine-5-carboxamide] | < 50
17 | CCOC(=O)c1sc(NC(=O)c2c(OC)ncnc2OC)nc1C(C)(C)C [Example 193, ethyl 4-tert-butyl-2-{[(4,6-dimethoxypyrimidin-5-yl)carbonyl]amino}-1,3-thiazole-5-carboxylate] | < 50

More lines, now with the values ahead:

Row | IC50 [nM] | SMILES
18 | 100 to 500 | COc1ncnc(OC)c1C(=O)Nc1nc(C(F)(F)F)c(-c2cnc(C#N)nc2)s1 [Example 162, N-[5-(2-cyanopyrimidin-5-yl)-4-(trifluoromethyl)-1,3-thiazol-2-yl]-4,6-dimethoxypyrimidine-5-carboxamide]
19 | 100 to 500 | COc1ncnc(OC)c1C(=O)Nc1nc(C(F)(F)F)c(C2CC(C(C)C)=NO2)s1 (stereo not drawn) [Example 170, 4,6-dimethoxy-N-{5-[3-(propan-2-yl)-4,5-dihydro-1,2-oxazol-5-yl]-4-(trifluoromethyl)-1,3-thiazol-2-yl}pyrimidine-5-carboxamide]
20 | 50 to 100 | COc1ncnc(OC)c1C(=O)Nc1nc(C(F)(F)F)c(-c2cc(C(C)C)no2)s1 [Example 171, 4,6-dimethoxy-N-{5-[3-(propan-2-yl)-1,2-oxazol-5-yl]-4-(trifluoromethyl)-1,3-thiazol-2-yl}pyrimidine-5-carboxamide]
21 | < 50 | COc1ncnc(OC)c1C(=O)Nc1nc(C(F)(F)F)c(-c2cnn(C(C)C)c2)s1 [Example 174, 4,6-dimethoxy-N-{5-[1-(propan-2-yl)-1H-pyrazol-4-yl]-4-(trifluoromethyl)-1,3-thiazol-2-yl}pyrimidine-5-carboxamide]
22 | 100 to 500 | COc1ncnc(OC)c1C(=O)Nc1nc(C(F)(F)F)c(-c2ccnn2C)s1 [Example 176, 4,6-dimethoxy-N-[5-(1-methyl-1H-pyrazol-5-yl)-4-(trifluoromethyl)-1,3-thiazol-2-yl]pyrimidine-5-carboxamide]
23 | 100 to 500 | COc1ncnc(OC)c1C(=O)Nc1nc(COc2ccccc2C)cs1 [Example 179, 4,6-dimethoxy-N-{4-[(2-methylphenoxy)methyl]-1,3-thiazol-2-yl}pyrimidine-5-carboxamide]
24 | < 50 | COc1ncnc(OC)c1C(=O)Nc1nc(C(F)(F)F)c(-c2ccnn2C(C)C)s1 [Example 180, 4,6-dimethoxy-N-{5-[1-(propan-2-yl)-1H-pyrazol-5-yl]-4-(trifluoromethyl)-1,3-thiazol-2-yl}pyrimidine-5-carboxamide]
25 | < 50 | COc1ncnc(OC)c1C(=O)Nc1nc(C(F)(F)F)c(-c2cccnc2N2CCOCC2)s1 [Example 185, 4,6-dimethoxy-N-{5-[2-(morpholin-4-yl)pyridin-3-yl]-4-(trifluoromethyl)-1,3-thiazol-2-yl}pyrimidine-5-carboxamide]
26 | 100 to 500 | COc1ncnc(OC)c1C(=O)Nc1nc(C(F)(F)F)c(-c2cc3ncccc3o2)s1 [Example 187, N-[5-(furo[3,2-b]pyridin-2-yl)-4-(trifluoromethyl)-1,3-thiazol-2-yl]-4,6-dimethoxypyrimidine-5-carboxamide]
27 | < 50 | COc1ncnc(OC)c1C(=O)Nc1nc(C(F)(F)F)c(-c2ccnn2CC2CC2)s1 [Example 188, N-{5-[1-(cyclopropylmethyl)-1H-pyrazol-5-yl]-4-(trifluoromethyl)-1,3-thiazol-2-yl}-4,6-dimethoxypyrimidine-5-carboxamide]
28 | < 50 | COc1ncnc(OC)c1C(=O)Nc1nc(C(C)(C)C)c(C#N)s1 [Example 189, N-(4-tert-butyl-5-cyano-1,3-thiazol-2-yl)-4,6-dimethoxypyrimidine-5-carboxamide]
29 | 50 to 100 | COc1ncnc(OC)c1C(=O)Nc1nc(CC(C)(C)C)cs1 [Example 191, N-[4-(2,2-dimethylpropyl)-1,3-thiazol-2-yl]-4,6-dimethoxypyrimidine-5-carboxamide]
30 | 100 to 500 | COc1ncnc(OC)c1C(=O)Nc1nc(C(F)(F)F)c(-c2ccc(OCC(F)(F)F)nc2)s1 [Example 194, 4,6-dimethoxy-N-{5-[6-(2,2,2-trifluoroethoxy)pyridin-3-yl]-4-(trifluoromethyl)-1,3-thiazol-2-yl}pyrimidine-5-carboxamide]
